Patent EP4545549B1, “INSECT NEUROPEPTIDES” (Solasta Bio Limited, priority 2023, dated 2025)
Where two headings read alike, the source gives them in different places. Residues, ends and D or L forms follow the SMILES beside them.

Columns and labels:
[1] = tested on: Bumblebee; experiment: Bee oral toxicity test (adapted from OECD Test No. 247: Bumblebee, Acute Oral Toxicity Test); type: in vivo; conditions: after 96 hours of application; compared with sucrose or vehicle and Imidacloprid; Figure 10
Experimental: Bee oral testing protocol was carried out adapted from OECD Test No. 247: Bumblebee, Acute Oral Toxicity Test. The toxicity of SB-P-46 was compared with a negative control of sucrose or vehicle, and with a current commercial insecticide Imidacloprid.

[2] = tested on: Aphis gossypii; conditions: Greece; cotton; unformulated SB-P-46; counted 3 days following application; Figure 14
Source text: (§1) The data has been processed in the ARM Field Trials software under license.
AgriScience conducted a field trial in Greece, investigating the efficacy of insecticidal peptides on aphids on cotton crop.

[3] = tested on: Amrasca biguttula (leaf hopper); conditions: unformulated SB-P-46; 3 and 7 days after application; Figure 16
Source text: as §1

[4] = tested on: Aphis fabae; conditions: unformulated SB-P-46; for reduction in naturally infested Aphis fabae numbers as a percentage of untreated control crop: vining peas
Source text: as §1

[5] = tested on: Myzus persicae; conditions: unformulated SB-P-46; leaf dip; mortality assessed at 72, 96 and 120 hours; compared to vehicle and Spirotetramat; Figures 6 and 7
Experimental: The assay was carried out based on IRAC susceptibility test method 019 (https://irac-online.org/methods/aphids-adultnymphs/).
Dip a 2.5 cm leaf disc into 3 ml of treatment solution allowing the treatment to coat the leaf. Leave the disc to dry for 1 hour and place onto the set agar. Place insects (aphids) onto each of the leaf discs. Each unit is sealed with a close-fitting, ventilated lid. Place the agar dishes in a small plastic tray lined with moist tissue paper and ensure the water trays in the bottom of the incubator are filled with clean water and place within the incubator. An assessment of mortality is made at 72, 96 and 120 hours. Leaf dip assays were performed with unformulated SB-P-46, and compared to a negative control vehicle and a current commercial insecticide Spirotetramat.

`CC(C)C[C@H](NC(=O)[C@H](CCCNC(=N)N)NC(=O)[C@@H]1CCCN1C(=O)[C@H](CO)NC(=O)[C@H](Cc1ccccc1)NC(=O)[C@@H]1CCCN1C(=O)[C@@H]1CCCN1C(=O)[C@H](CO)NC(=O)[C@H](Cc1ccc(O)cc1)NC(=O)[C@@H]1CCCN1C(=O)[C@@H]1CCCN1C(=O)[C@@H](N)CO)C(N)=O` [SB-P-46, [Hy]-SPPYSPPFSPRL-[NH2]] (H-SPPYSPPFSPRL-NH2) was tested, and the “bee oral toxicity (% survival)” value [1] was “far lower toxicity to key pollinator species such as bees compared to broad spectrum chemical insecticides such as Imidacloprid”, the “reduction in naturally infested Aphis gossypii numbers as a percentage of untreated control crop” value [2] was “performing with close efficacy to the conventional pesticide equivalent tested” and the “activity against naturally infested Amrasca biguttula (leaf hopper) in field trials” value [3] was “acted comparably to Flipper insecticide”. The “reduction in naturally infested Aphis fabae numbers as a percentage of untreated control crop” value ([4]; Wigtoft location, counted 4 days following application, Figure 12) was “similarly efficacious activity”, the “reduction in naturally infested Aphis fabae numbers as a percentage of untreated control crop” value ([4]; field trial 1, Chatteris location, counted 14 days following application, Figure 11) was “performed comparably to the conventional insecticides Stealth and Teppeki (sprayed as Treatment 1), followed by Aphox (sprayed as Treatment 2)” and the “reduction in naturally infested Aphis fabae numbers as a percentage of untreated control crop” value ([4]; third trial (slot trial), Holbeach location, counted 7 days following application, low aphid infestation, Figure 13) was “performed as efficaciously as the conventional pesticides tested”. The “activity against naturally infested Aphis fabae in field trials” value ([4]; 4 and 8 days after application, Figure 15) was “acted comparably to Hallmark Zeon insecticide” and the “activity against Myzus persicae” value [5] was “good activity”.
